For data set [1], the system named is mice. The data set can be described thus: Sub-acute and chronic toxicity. The class given is in vivo. As to conditions: administration to mice over periods of 2 and 6 months.
Data set [2] concerns rat complete brain homogenates. The data set can be described thus: Action on cerebral oxidative activity (oxygen consumption). Particulars: 1 × 10^-^3 and 1 × 10^-^4 M.
Data set [3] concerns bronchial spasm. Description: Bronchial spasmolytic action. The data set is classed as in vivo.

Here are results for one substance from patent US3962243A (Laboratories Made, S.A., priority 1974, dated 1976).

For the substance “2-[(2-dimethylaminoethyl) (p-methoxybenzyl)amino]-pyridine 1,2,3,6-tetrahydro-1,3-dimethyl-2,6-dioxopurin-7-acetate”, the “microscopic or macroscopic organ alteration” value in data set [1] is on record as “No microscopic or macroscopic organ alteration”. Also, the “inhibition of the oxygen consumption” value in data set [2] is given as “strong inhibition of the oxygen consumption”. Moreover, the “duration of activity, bronchial spasmolytic action” value in data set [3] (in vivo) was “over 5 hours”. The “action against bronchial spasm by route” value in data set [3] (oral, rectal, intramuscular and intravenous) is on record as “Effective action against bronchial spasm is obtainable by all routes”. The “active dose, bronchial spasmolytic action” value in data set [3] (very small doses) is 6 µg/kg.
